Results from ChEMBL document CHEMBL4507303, “Data for DCP probe TP-004” (2021).

Columns and labels:
[1] = test system: Tyrosine-protein kinase ABL1 (Homo sapiens), P00519 [E255K]; details: Compound concentration 1000.0 nM
[2] = target: Tyrosine-protein kinase ABL2 (Homo sapiens) (UniProt P42684); details: Compound concentration 1000.0 nM
[3] = target: 5'-AMP-activated protein kinase catalytic subunit alpha-1 (Homo sapiens) (UniProt Q13131); details: Compound concentration 1000.0 nM
[4] = target: Serine/threonine-protein kinase BRSK1 (Homo sapiens) (UniProt Q8TDC3); details: Compound concentration 1000.0 nM
[5] = target: Casein kinase I isoform alpha (Homo sapiens) (UniProt P48729); details: Compound concentration 1000.0 nM
[6] = target: Casein kinase II subunit alpha' (Homo sapiens) (UniProt P19784); details: Compound concentration 1000.0 nM
[7] = target: Serine/threonine-protein kinase MRCK gamma (Homo sapiens) (UniProt Q6DT37); details: Compound concentration 1000.0 nM
[8] = test system: Epidermal growth factor receptor (Homo sapiens), P00533 [L861Q]; details: Compound concentration 1000.0 nM
[9] = test system: Epidermal growth factor receptor (Homo sapiens), P00533 [T790M]; details: Compound concentration 1000.0 nM
[10] = target: Ephrin type-B receptor 2 (Homo sapiens) (UniProt P29323); details: Compound concentration 1000.0 nM
[11] = target: Mitogen-activated protein kinase 15 (Homo sapiens) (UniProt Q8TD08); details: Compound concentration 1000.0 nM
[12] = target: Glycogen synthase kinase-3 beta (Homo sapiens) (UniProt P49841); details: Compound concentration 1000.0 nM
[13] = target: Homeodomain-interacting protein kinase 4 (Homo sapiens) (UniProt Q8NE63); details: Compound concentration 1000.0 nM
Chain of Homeodomain-interacting protein kinase 4 (Homo sapiens) (Q8NE63 whole entry): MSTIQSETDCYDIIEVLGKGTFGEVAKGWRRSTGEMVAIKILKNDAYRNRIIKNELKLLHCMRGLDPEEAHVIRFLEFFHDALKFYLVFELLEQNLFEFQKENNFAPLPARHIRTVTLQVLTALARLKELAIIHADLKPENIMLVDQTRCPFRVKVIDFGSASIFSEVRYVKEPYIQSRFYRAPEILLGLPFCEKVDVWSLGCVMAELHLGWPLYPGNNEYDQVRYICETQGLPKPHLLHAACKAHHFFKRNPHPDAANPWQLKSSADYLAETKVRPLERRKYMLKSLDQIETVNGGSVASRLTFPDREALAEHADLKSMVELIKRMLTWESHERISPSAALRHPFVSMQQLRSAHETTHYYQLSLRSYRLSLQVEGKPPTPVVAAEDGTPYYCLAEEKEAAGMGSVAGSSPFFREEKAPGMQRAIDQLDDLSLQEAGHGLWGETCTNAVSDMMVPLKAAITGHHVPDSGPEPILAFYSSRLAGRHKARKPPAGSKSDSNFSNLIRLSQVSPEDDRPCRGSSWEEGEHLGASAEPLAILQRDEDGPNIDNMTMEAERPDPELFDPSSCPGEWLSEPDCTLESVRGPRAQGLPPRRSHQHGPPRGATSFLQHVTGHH

[14] = target: Mitogen-activated protein kinase kinase kinase kinase 1 (Homo sapiens) (UniProt Q92918); details: Compound concentration 1000.0 nM
[15] = target: Hormonally up-regulated neu tumor-associated kinase (Homo sapiens) (UniProt P57058); details: Compound concentration 1000.0 nM
[16] = target: Serine/threonine-protein kinase ICK (Homo sapiens) (UniProt Q9UPZ9); details: Compound concentration 1000.0 nM
[17] = test system: Mast/stem cell growth factor receptor Kit (Homo sapiens), P10721 [V559D,T670I]; details: Compound concentration 1000.0 nM
[18] = target: Serine/threonine-protein kinase LATS2 (Homo sapiens) (UniProt Q9NRM7); details: Compound concentration 1000.0 nM
Chain of Serine/threonine-protein kinase LATS2 (Homo sapiens) (Q9NRM7 whole entry): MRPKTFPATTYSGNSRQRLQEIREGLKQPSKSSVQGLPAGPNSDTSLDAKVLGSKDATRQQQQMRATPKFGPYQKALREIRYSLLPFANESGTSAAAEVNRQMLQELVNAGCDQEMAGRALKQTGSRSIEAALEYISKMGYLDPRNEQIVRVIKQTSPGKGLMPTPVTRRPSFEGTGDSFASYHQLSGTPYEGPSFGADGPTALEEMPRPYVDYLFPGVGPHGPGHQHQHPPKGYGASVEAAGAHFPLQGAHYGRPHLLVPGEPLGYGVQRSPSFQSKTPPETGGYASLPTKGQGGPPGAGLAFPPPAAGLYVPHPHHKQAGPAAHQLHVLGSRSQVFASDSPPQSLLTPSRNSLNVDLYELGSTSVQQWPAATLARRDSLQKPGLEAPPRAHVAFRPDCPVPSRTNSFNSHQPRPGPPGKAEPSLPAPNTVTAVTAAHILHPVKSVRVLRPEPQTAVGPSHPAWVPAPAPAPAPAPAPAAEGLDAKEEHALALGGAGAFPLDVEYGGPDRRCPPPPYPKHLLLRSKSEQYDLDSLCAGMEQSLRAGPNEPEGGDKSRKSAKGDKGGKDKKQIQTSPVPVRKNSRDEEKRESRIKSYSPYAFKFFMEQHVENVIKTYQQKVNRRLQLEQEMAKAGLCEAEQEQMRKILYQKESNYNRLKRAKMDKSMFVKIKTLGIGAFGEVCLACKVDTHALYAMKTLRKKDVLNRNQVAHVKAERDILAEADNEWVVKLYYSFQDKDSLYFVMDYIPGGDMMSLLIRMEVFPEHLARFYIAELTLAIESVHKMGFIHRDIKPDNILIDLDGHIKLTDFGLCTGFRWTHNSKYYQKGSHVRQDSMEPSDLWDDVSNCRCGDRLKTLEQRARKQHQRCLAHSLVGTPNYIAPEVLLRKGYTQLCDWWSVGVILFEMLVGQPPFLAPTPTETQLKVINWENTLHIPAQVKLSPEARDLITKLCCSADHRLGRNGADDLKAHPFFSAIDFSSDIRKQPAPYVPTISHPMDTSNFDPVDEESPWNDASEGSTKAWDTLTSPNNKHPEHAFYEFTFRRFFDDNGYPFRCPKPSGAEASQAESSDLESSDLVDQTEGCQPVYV

[19] = test system: Leucine-rich repeat serine/threonine-protein kinase 2 (Homo sapiens), Q5S007 [G2019S]; details: Compound concentration 1000.0 nM
[20] = target: MAP/microtubule affinity-regulating kinase 3 (Homo sapiens) (UniProt P27448); details: Compound concentration 1000.0 nM
[21] = target: Misshapen-like kinase 1 (Homo sapiens) (UniProt Q8N4C8); details: Compound concentration 1000.0 nM
[22] = target: Mitogen-activated protein kinase kinase kinase 11 (Homo sapiens) (UniProt Q16584); details: Compound concentration 1000.0 nM
[23] = target: Myosin-IIIa (Homo sapiens) (UniProt Q8NEV4); details: Compound concentration 1000.0 nM
[24] = target: Serine/threonine-protein kinase Nek10 (Homo sapiens) (UniProt Q6ZWH5); details: Compound concentration 1000.0 nM
[25] = target: Serine/threonine-protein kinase Nek7 (Homo sapiens) (UniProt Q8TDX7); details: Compound concentration 1000.0 nM
[26] = target: Serine/threonine-protein kinase PAK 5 (Homo sapiens) (UniProt Q9P286); details: Compound concentration 1000.0 nM
[27] = target: 3-phosphoinositide-dependent protein kinase 1 (Homo sapiens) (UniProt O15530); details: Compound concentration 1000.0 nM
[28] = test system: Phosphatidylinositol 4,5-bisphosphate 3-kinase catalytic subunit alpha isoform (Homo sapiens), P42336 [C420R]; details: Compound concentration 1000.0 nM
[29] = target: Serine/threonine-protein kinase pim-2 (Homo sapiens) (UniProt Q9P1W9); details: Compound concentration 1000.0 nM
[30] = target: cAMP-dependent protein kinase catalytic subunit beta (Homo sapiens) (UniProt P22694); details: Compound concentration 1000.0 nM
[31] = target: Membrane-associated tyrosine- and threonine-specific cdc2-inhibitory kinase (Homo sapiens) (UniProt Q99640); details: Compound concentration 1000.0 nM
[32] = target: Serine/threonine-protein kinase PLK4 (Homo sapiens) (UniProt O00444); details: Compound concentration 1000.0 nM
Chain of Serine/threonine-protein kinase PLK4 (Homo sapiens) (O00444 whole entry): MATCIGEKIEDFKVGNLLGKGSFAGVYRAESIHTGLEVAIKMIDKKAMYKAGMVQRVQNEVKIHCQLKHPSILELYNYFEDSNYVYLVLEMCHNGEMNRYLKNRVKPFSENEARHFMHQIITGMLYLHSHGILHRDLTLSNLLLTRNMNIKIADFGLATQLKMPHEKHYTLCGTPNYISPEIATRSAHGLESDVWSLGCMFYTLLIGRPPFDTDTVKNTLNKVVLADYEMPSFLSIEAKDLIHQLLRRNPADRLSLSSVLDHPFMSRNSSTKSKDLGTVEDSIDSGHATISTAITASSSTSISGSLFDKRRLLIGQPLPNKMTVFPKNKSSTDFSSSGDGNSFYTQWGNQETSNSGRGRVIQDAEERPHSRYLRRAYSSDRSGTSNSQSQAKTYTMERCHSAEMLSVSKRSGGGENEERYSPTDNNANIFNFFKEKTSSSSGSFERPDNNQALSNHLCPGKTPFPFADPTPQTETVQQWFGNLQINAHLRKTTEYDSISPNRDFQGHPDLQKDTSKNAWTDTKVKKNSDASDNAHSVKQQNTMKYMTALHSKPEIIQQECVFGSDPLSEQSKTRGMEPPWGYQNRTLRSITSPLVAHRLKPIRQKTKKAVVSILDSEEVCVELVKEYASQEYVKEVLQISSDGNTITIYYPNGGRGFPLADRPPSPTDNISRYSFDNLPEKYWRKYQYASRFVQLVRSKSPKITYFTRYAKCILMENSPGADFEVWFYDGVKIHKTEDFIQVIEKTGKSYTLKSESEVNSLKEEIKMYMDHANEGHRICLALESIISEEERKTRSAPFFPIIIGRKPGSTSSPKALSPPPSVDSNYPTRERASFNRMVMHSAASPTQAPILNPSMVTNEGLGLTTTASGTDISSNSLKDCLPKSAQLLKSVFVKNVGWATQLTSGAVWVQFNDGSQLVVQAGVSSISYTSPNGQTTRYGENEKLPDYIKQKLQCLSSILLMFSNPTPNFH

[33] = target: RAF proto-oncogene serine/threonine-protein kinase (Homo sapiens) (UniProt P04049); details: Compound concentration 1000.0 nM
[34] = target: Rho-associated protein kinase 1 (Homo sapiens) (UniProt Q13464); details: Compound concentration 1000.0 nM
[35] = target: Proto-oncogene tyrosine-protein kinase ROS (Homo sapiens) (UniProt P08922); details: Compound concentration 1000.0 nM
[36] = target: Ribosomal protein S6 kinase alpha-4 (Homo sapiens) (UniProt O75676); details: Compound concentration 1000.0 nM
[37] = target: Serine/threonine-protein kinase Sgk3 (Homo sapiens) (UniProt Q96BR1); details: Compound concentration 1000.0 nM
Chain of Serine/threonine-protein kinase Sgk3 (Homo sapiens) (Q96BR1 whole entry): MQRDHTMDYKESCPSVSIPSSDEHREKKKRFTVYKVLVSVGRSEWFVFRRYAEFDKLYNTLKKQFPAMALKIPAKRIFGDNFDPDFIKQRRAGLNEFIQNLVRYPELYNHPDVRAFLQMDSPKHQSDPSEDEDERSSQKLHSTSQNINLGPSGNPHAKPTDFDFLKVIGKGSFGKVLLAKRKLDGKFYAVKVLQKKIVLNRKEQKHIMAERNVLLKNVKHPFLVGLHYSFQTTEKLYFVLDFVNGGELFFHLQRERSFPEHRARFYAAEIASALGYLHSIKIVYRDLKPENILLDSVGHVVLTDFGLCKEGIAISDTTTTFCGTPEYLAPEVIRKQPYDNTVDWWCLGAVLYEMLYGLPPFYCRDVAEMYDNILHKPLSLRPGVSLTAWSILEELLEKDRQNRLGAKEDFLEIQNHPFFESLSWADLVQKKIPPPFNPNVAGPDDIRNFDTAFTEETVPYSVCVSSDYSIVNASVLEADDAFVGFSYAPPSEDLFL

[38] = target: Serine/threonine-protein kinase 16 (Homo sapiens) (UniProt O75716); details: Compound concentration 1000.0 nM
Chain of Serine/threonine-protein kinase 16 (Homo sapiens) (O75716 whole entry): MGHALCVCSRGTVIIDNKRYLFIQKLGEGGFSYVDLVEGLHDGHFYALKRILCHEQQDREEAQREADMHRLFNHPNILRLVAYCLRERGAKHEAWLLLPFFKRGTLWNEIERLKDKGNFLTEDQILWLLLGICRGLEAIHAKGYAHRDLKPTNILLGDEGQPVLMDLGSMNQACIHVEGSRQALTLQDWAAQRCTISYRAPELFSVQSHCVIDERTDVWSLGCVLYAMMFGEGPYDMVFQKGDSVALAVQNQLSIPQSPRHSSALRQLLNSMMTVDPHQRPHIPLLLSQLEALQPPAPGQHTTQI

[39] = target: Serine/threonine-protein kinase TNNI3K (Homo sapiens) (UniProt Q59H18); details: Compound concentration 1000.0 nM
[40] = target: Dual specificity protein kinase TTK (Homo sapiens) (UniProt P33981); details: Compound concentration 1000.0 nM
[41] = target: Non-receptor tyrosine-protein kinase TYK2 (Homo sapiens) (UniProt P29597); details: Compound concentration 1000.0 nM
[42] = target: Serine/threonine-protein kinase ULK3 (Homo sapiens) (UniProt Q6PHR2); details: Compound concentration 1000.0 nM
Chain of Serine/threonine-protein kinase ULK3 (Homo sapiens) (Q6PHR2 whole entry): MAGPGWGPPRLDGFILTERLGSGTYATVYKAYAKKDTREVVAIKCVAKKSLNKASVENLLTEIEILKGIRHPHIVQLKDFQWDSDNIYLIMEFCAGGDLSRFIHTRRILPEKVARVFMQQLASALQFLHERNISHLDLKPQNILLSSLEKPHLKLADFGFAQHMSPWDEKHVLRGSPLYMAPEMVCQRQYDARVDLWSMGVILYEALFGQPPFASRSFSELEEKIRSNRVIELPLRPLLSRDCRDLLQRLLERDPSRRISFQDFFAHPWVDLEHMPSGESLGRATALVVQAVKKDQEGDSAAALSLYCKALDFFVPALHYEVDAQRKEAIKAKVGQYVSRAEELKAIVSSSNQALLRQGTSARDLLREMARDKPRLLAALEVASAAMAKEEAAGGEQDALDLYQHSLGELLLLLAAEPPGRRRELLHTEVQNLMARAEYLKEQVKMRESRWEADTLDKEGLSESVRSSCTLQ

[43] = target: 5-hydroxytryptamine receptor 1A (Homo sapiens) (UniProt P08908); details: Compound concentration 10.0 uM
[44] = target: Alpha-1A adrenergic receptor (Homo sapiens) (UniProt P35348); details: Compound concentration 10.0 uM
[45] = target: Alpha-2B adrenergic receptor (Homo sapiens) (UniProt P18089); details: Compound concentration 10.0 uM

Chain of Tyrosine-protein kinase ABL1 (Homo sapiens), P00519 [E255K] (P00519 whole entry E255K): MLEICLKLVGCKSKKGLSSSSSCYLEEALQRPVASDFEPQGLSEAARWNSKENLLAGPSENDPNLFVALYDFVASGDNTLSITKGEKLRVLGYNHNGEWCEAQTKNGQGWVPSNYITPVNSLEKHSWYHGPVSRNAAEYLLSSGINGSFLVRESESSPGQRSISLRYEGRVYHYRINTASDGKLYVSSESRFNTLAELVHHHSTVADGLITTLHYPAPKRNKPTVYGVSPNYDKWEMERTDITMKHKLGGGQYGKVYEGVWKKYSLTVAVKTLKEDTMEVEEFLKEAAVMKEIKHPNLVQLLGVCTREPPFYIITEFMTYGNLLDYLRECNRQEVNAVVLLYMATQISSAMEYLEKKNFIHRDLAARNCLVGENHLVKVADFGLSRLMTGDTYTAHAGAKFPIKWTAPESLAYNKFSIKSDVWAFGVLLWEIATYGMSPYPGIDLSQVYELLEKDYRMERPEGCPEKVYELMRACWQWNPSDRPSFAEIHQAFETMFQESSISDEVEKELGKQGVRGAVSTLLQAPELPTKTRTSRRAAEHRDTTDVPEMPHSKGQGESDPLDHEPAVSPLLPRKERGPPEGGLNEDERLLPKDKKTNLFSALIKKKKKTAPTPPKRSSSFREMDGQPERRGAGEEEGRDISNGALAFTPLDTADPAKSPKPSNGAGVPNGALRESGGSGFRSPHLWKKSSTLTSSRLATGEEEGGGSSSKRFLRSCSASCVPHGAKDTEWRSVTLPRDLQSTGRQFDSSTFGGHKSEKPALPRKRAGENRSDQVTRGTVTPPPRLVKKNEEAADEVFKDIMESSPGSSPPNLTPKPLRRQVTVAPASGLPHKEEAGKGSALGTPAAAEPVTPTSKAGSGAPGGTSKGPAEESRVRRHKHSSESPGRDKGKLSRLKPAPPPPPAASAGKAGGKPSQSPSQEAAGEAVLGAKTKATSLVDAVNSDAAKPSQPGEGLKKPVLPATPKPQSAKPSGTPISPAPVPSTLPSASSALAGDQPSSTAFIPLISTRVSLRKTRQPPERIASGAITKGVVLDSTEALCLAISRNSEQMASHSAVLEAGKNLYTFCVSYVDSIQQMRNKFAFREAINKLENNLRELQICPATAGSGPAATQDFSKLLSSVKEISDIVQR

With Cc1nc(N2CC[C@@H](O)C2)ncc1-c1cc(C(F)(F)F)cc2[nH]ncc12 [TP-004] the residual activity [1] was 77%, the residual activity [2] was 60% and the residual activity [3] was 89%. The residual activity [4] was 100%, the residual activity [5] was 96% and the residual activity [6] was 91%. It also gave a residual activity [7] of 100%, a residual activity [8] of 100% and a residual activity [9] of 93%. It also gave a residual activity [10] of 100%, a residual activity [11] of 86% and a residual activity [12] of 65%. The residual activity [13] was 82%, the residual activity [14] was 100% and the residual activity [15] was 100%. It also gave a residual activity [16] of 100%, a residual activity [17] of 68% and a residual activity [18] of 26%. For the same compound, the residual activity [19] was 67%, the residual activity [20] was 100% and the residual activity [21] was 61%. The residual activity [22] was 100%, the residual activity [23] was 100% and the residual activity [24] was 96%. The residual activity [25] was 97%, the residual activity [26] was 99% and the residual activity [27] was 100%. The residual activity [28] was 82%, the residual activity [29] was 89% and the residual activity [30] was 79%. The residual activity [31] was 100%, the residual activity [32] was 93% and the residual activity [33] was 100%. The residual activity [34] was 91%, the residual activity [35] was 86% and the residual activity [36] was 68%. It also gave a residual activity [37] of 70%, a residual activity [38] of 92% and a residual activity [39] of 87%. For the same compound, the residual activity [40] was 100%, the residual activity [41] was 70% and the residual activity [42] was 78%. For the same compound, the inhibition [43] was 20%, the inhibition [44] was 15.7% and the inhibition [45] was 12.5%.
